# Measurements taken from US9403800B2, “Compounds for inhibition of cancer cell proliferation” (ChemRegen, Inc., priority 2012, dated 2016).
# Legend:
# Type in all cases: cell-based
# [1] = test system: MDA-MB-231; assay: inhibition of proliferation (PicoGreen DNA assay), MDA-MB-231; settings: Homo sapiens
# Method: (§1) We tested a subset of the 50 sulfonamide analogues for inhibition of proliferation of the MDA-MB-231, PC-3, MCF-7, and HCT-116 cancer cell lines. Following plating of the cells (24 hrs) in eight identical 96-well plates, the cells were treated with either Compound 1, 4, 15, or vehicle (DMSO) using a dose range of 1.6 to 5000 nM. After the lysis of cells, the cell lysate was resuspended in 25 μl PBS and the DNA was quantified using a PicoGreen assay by measuring fluorescence at Ex490 nm/Em535 nm. Cell proliferation was inhibited by Compounds 1, 4, and 15 for all the cancer cell lines tested with inhibition constants listed in Table 2.
# [2] = test system: MCF-7; assay: inhibition of proliferation (PicoGreen DNA assay), MCF-7; settings: Homo sapiens, MCF7
# Method: as §1
# [3] = test system: PC-3; assay: inhibition of proliferation (PicoGreen DNA assay), PC-3; settings: Homo sapiens
# Method: as §1
# [4] = test system: HCT-116; assay: inhibition of proliferation (PicoGreen DNA assay), HCT-116; settings: Homo sapiens
# Method: as §1
# [5] = test system: PC-3; assay: stimulation of apoptosis, Caspase 3/7 cleavage (Caspase-Glo Kit), PC-3; settings: Homo sapiens, PC-3, 24 hrs
# Method: (§2) Given Compounds 1, 4, and 15 inhibited cancer cell proliferation, we tested whether compounds 1, 4, and 15 stimulated cancer cell apoptosis. The MDA-MB-231, MCF-7, PC-3, and HCT-116 cells were treated with the indicated compounds for 24 hrs. over a dose range from 1.6 to 5000 nM. Apoptosis was then measured by monitoring Caspase 3/7 cleavage (Caspase-Glo Kit).
# [6] = test system: HCT-116; assay: stimulation of apoptosis, Caspase 3/7 cleavage (Caspase-Glo Kit), HCT-116; settings: Homo sapiens, HCT-116, 24 hrs
# Method: as §2
# [7] = test system: LNCap; assay: viability (Alamar Blue), LNCap; settings: Homo sapiens, 24 hrs
# [8] = test system: HCT-116; assay: viability (Alamar Blue), HCT-116; settings: Homo sapiens; HCT-116, 24 hrs
# Method: (§3) Given Compounds 1, 4, and 15 inhibited cancer cell proliferation and stimulated apoptosis, we tested the effects compounds 1, 4, and 15 on cancer cell viability and cytotoxicity. The MDA-MB-231, MCF-7, PC-3, and HCT-116 cells were treated with the indicated compounds for 24 hrs. over a dose range from 1.6 to 5000 nM. Viability and cytotoxicity were then measured by the Alamar Blue and Vibrant Cytotox assays respectively.
# [9] = cytotoxicity (Vibrant Cytotox assay), LNCap; settings: human, LNCap cells
# [10] = cytotoxicity (Vibrant Cytotox assay), HCT-116; settings: human, HCT-116 cells; HCT-116, 24 hrs
# Method: as §3
# [11] = cytotoxicity (Vibrant Cytotox assay), MDA-MB-231; settings: human, MDA-MB-231 cells; MDA-MB-231, 24 hrs
# Method: as §3
# [12] = test system: Endogenous Target Genes for Wnt & Apoptotic Pathways in MDA-MB 231; assay: qPCR of Wnt and pro-apoptotic target genes, MDA-MB 231; design: concentration or dose not given beside the values; settings: MDA-MB 231, 24 hrs, qPCR normalized to 36B4
# Method: (§4) Given the effects of Compounds 1, 4, and 15 on biological functions (e.g., proliferation, viability, and apoptosis) in several cancer cell lines, we tested the effects of compounds 1, 4, and 15 on regulation of endogenous Wnt and pro-apoptotic gene expression. MDA-MB-231, MCF-7, PC-3, and HCT-116 cancerncells were treated with the indicated compounds for 24 hrs. over a dose range from 1.6 to 5000 nM. Gene expression was measured using qPCR, normalized to the housekeeping gene, 36B4, and calculated % change relative to DMSO control. NC, no change.
# [13] = test system: Endogenous Target Genes for Wnt & Apoptotic Pathways in LNCAP; assay: qPCR of Wnt and pro-apoptotic target genes, LNCAP; design: MYC expression, % change relative to DMSO control / CCDN1 expression, % change relative to DMSO control / BAX expression, % change relative to DMSO control / BAK expression, % change relative to DMSO control / BBC3 expression, % change relative to DMSO control / FOS expression, % change relative to DMSO control: concentration or dose not given beside the values; settings: 24 hrs, qPCR normalized to 36B4
# [14] = test system: Endogenous Target Genes for Wnt & Apoptotic Pathways in PC-3; assay: qPCR of Wnt and pro-apoptotic target genes, PC-3; design: concentration or dose not given beside the values; settings: PC-3, 24 hrs, qPCR normalized to 36B4
# Method: as §4
# [15] = test system: Endogenous Target Genes for Wnt & Apoptotic Pathways in HCT-116; assay: qPCR of Wnt and pro-apoptotic target genes, HCT-116; design: MYC expression, % change relative to DMSO control / CCDN1 expression, % change relative to DMSO control / BAX expression, % change relative to DMSO control / BBC3 expression, % change relative to DMSO control / FOS expression, % change relative to DMSO control: concentration or dose not given beside the values; settings: HCT-116, 24 hrs, qPCR normalized to 36B4
# Method: as §4
# [16] = test system: HCT-116 and MCF-7 cancer cells; p53 −/− isogenic HCT-116 cells; assay: morphology change of cancer cells with and without p53; settings: for morphology change in cancer cells with wild-type and mutant p53: HCT-116 and MCF-7, 500 nM for 24 hours; for morphology change in cells lacking p53: −/− p53 isogenic HCT-116 cells, 500 nM for 24 hours
# From the text: Using the same treatment conditions, this morphology change was not observed in […] cells lacking p53 (i.e., −/− p53, isogenic HCT-116 cells) highlighting the integral importance of p53 protein in the mechanism of action of the disclosed compounds.
smiles,measurement,setting,value
"O=C1CCCN1c1ccc(S(=O)(=O)N2CCCc3ccccc32)cc1 [Compound 1, 1-(4-(3,4-dihydroquinolin-1(2H)-ylsulfonyl)phenyl)pyrrolidin-2-one]",IC50,[1],100 nM
same,IC50,[2],20 nM
same,IC50,[3],20 nM
same,IC50,[4],40 nM
same,IC50,[5],49 nM
same,IC50,[6],96 nM
same,IC50,[7],90 nM
same,IC50,[8],30 nM
same,IC50 at 24 h,[9],> 5000 nM
same,IC50 at 24 h,[10],> 5000 nM
same,IC50 at 24 h,[11],> 5000 nM
same,"BAK expression, % change relative to DMSO control",[12],−42%
same,"BAX expression, % change relative to DMSO control",[12],−70%
same,"BBC3 expression, % change relative to DMSO control",[12],−78%
same,"CCDN1 expression, % change relative to DMSO control",[12],−72%
same,"JUN expression, % change relative to DMSO control",[12],−50%
same,"MYC expression, % change relative to DMSO control",[12],−70%
same,"BAK expression, % change relative to DMSO control",[13],−22%
same,"BAX expression, % change relative to DMSO control",[13],−30%
same,"BBC3 expression, % change relative to DMSO control",[13],−90%
same,"CCDN1 expression, % change relative to DMSO control",[13],−10%
same,"FOS expression, % change relative to DMSO control",[13],−15%
same,"MYC expression, % change relative to DMSO control",[13],−35%
same,"BAK expression, % change relative to DMSO control",[14],−20%
same,"BAX expression, % change relative to DMSO control",[14],+5%
same,"BBC3 expression, % change relative to DMSO control",[14],−38%
same,"CCDN1 expression, % change relative to DMSO control",[14],+10%
same,"FOS expression, % change relative to DMSO control",[14],+75%
same,"JUN expression, % change relative to DMSO control",[14],+75%
same,"MYC expression, % change relative to DMSO control",[14],+25%
same,"BAK expression, % change relative to DMSO control",[15],+75%
same,"BAX expression, % change relative to DMSO control",[15],+5%
same,"BBC3 expression, % change relative to DMSO control",[15],−80%
same,"CCDN1 expression, % change relative to DMSO control",[15],+40%
same,"FOS expression, % change relative to DMSO control",[15],−70%
same,"JUN expression, % change relative to DMSO control",[15],+525%
same,"MYC expression, % change relative to DMSO control",[15],−45%
same,morphology change in cancer cells with wild-type and mutant p53,[16],morphology change from a flat adherent cell to a rounded non-adherent one
same,morphology change in cells lacking p53,[16],not observed
"CC1CCc2ccccc2N1S(=O)(=O)c1ccc(N2CCCC2=O)cc1 (centres unmarked) [Compound 4, 1-(4-(2-methyl-3,4-dihydroquinolin-1(2H)-ylsulfonyl)phenyl)pyrrolidin-2-one]",IC50,[1],250 nM
same,IC50,[2],40 nM
same,IC50,[3],100 nM
same,IC50,[4],100 nM
same,IC50,[5],117 nM
same,IC50,[6],143 nM
same,IC50,[7],87 nM
same,IC50,[8],52 nM
same,IC50 at 24 h,[9],> 5000 nM
same,IC50 at 24 h,[10],> 5000 nM
same,IC50 at 24 h,[11],> 5000 nM
same,"BAK expression, % change relative to DMSO control",[12],−50%
same,"BAX expression, % change relative to DMSO control",[12],−65%
same,"BBC3 expression, % change relative to DMSO control",[12],−80%
same,"CCDN1 expression, % change relative to DMSO control",[12],−25%
same,"FOS expression, % change relative to DMSO control",[12],+100%
same,"JUN expression, % change relative to DMSO control",[12],−45%
same,"MYC expression, % change relative to DMSO control",[12],−55%
same,"BAK expression, % change relative to DMSO control",[13],−42%
same,"BAX expression, % change relative to DMSO control",[13],−55%
same,"BBC3 expression, % change relative to DMSO control",[13],−85%
same,"CCDN1 expression, % change relative to DMSO control",[13],−30%
same,"FOS expression, % change relative to DMSO control",[13],−38%
same,"MYC expression, % change relative to DMSO control",[13],−40%
same,"BAK expression, % change relative to DMSO control",[14],−55%
same,"BAX expression, % change relative to DMSO control",[14],−55%
same,"BBC3 expression, % change relative to DMSO control",[14],−37%
same,"CCDN1 expression, % change relative to DMSO control",[14],−42%
same,"FOS expression, % change relative to DMSO control",[14],−25%
same,"JUN expression, % change relative to DMSO control",[14],−25%
same,"MYC expression, % change relative to DMSO control",[14],−75%
same,"BAK expression, % change relative to DMSO control",[15],+110%
same,"BBC3 expression, % change relative to DMSO control",[15],−90%
same,"CCDN1 expression, % change relative to DMSO control",[15],−5%
same,"FOS expression, % change relative to DMSO control",[15],−85%
same,"JUN expression, % change relative to DMSO control",[15],+725%
same,"MYC expression, % change relative to DMSO control",[15],−75%
same,morphology change in cancer cells with wild-type and mutant p53,[16],morphology change from a flat adherent cell to a rounded non-adherent one
same,morphology change in cells lacking p53,[16],not observed
"CN1CCN(S(=O)(=O)c2ccc(N3CCCC3=O)cc2)c2ccccc21 [Compound 15, 1-(4-(4-methyl-3,4-dihydroquinoxalin-1(2H)-ylsulfonyl)phenyl)pyrrolidin-2-one]",IC50,[1],25 nM
same,IC50,[2],20 nM
same,IC50,[3],20 nM
same,IC50,[4],15 nM
same,IC50,[5],32 nM
same,IC50,[6],15 nM
same,IC50,[7],124 nM
same,IC50,[8],9 nM
same,IC50 at 24 h,[9],> 5000 nM
same,IC50 at 24 h,[10],> 5000 nM
same,IC50 at 24 h,[11],> 5000 nM
same,"BAK expression, % change relative to DMSO control",[12],−20%
same,"BAX expression, % change relative to DMSO control",[12],−62%
same,"BBC3 expression, % change relative to DMSO control",[12],−65%
same,"CCDN1 expression, % change relative to DMSO control",[12],−22%
same,"FOS expression, % change relative to DMSO control",[12],−10%
same,"JUN expression, % change relative to DMSO control",[12],−38%
same,"MYC expression, % change relative to DMSO control",[12],−50%
same,"BAK expression, % change relative to DMSO control",[13],−45%
same,"BAX expression, % change relative to DMSO control",[13],−58%
same,"BBC3 expression, % change relative to DMSO control",[13],−55%
same,"CCDN1 expression, % change relative to DMSO control",[13],−28%
same,"FOS expression, % change relative to DMSO control",[13],−25%
same,"JUN expression, % change relative to DMSO control",[13],+45%
same,"MYC expression, % change relative to DMSO control",[13],−45%
same,"BAK expression, % change relative to DMSO control",[14],−58%
same,"BAX expression, % change relative to DMSO control",[14],−54%
same,"BBC3 expression, % change relative to DMSO control",[14],−45%
same,"CCDN1 expression, % change relative to DMSO control",[14],−30%
same,"FOS expression, % change relative to DMSO control",[14],−24%
same,"JUN expression, % change relative to DMSO control",[14],−30%
same,"MYC expression, % change relative to DMSO control",[14],−60%
same,"BAK expression, % change relative to DMSO control",[15],+98%
same,"BAX expression, % change relative to DMSO control",[15],−5%
same,"BBC3 expression, % change relative to DMSO control",[15],−95%
same,"CCDN1 expression, % change relative to DMSO control",[15],+25%
same,"FOS expression, % change relative to DMSO control",[15],−84%
same,"JUN expression, % change relative to DMSO control",[15],+775%
same,"MYC expression, % change relative to DMSO control",[15],−70%
same,morphology change in cancer cells with wild-type and mutant p53,[16],morphology change from a flat adherent cell to a rounded non-adherent one
same,morphology change in cells lacking p53,[16],not observed
